Laboratory results reported in paper PMC11062899, “De novo development of small cyclic peptides that are orally bioavailable” (Nature Chemical Biology, 2023).
Where “and” joins values, the source holds several entries; their conditions need not be identical. Equal entries are not always repeated. Where two headings read alike, the source gives them in different places.

Key:
[1] = Peptide stability in simulated intestinal fluid (SIF); type: in vitro ADME, porcine; details: pig, simulated gi fluid; 8 h, 37 °C, pH 6.8; read-out: Proteolytic stability: SIF (8 h) % remaining
Method in brief: (§1)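 Peptide from a 1 mM DMSO stock was added to fluid pre-warmed at 37 °C. SGF was pH 1.2 NaCl with porcine pepsin (0.32 g per 100 ml), and SIF was pH 6.8 potassium phosphate with porcine pancreatin (1 g per 100 ml). Supernatant peptide was quantified by LC–MS, with residual expressed as T1/T0.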

porcine pancreatin = test: as above; type: in vitro ADME; details: after 8 h vs 0 h (TIC)
Method in brief: as §1

rat α-thrombin = target: T1, rat α-thrombin (Rattus norvegicus, UniProt P18292); test: Protease inhibition, Ki for rat α-thrombin (fluorogenic substrate Z-Gly-Gly-Arg-AMC); type: biochemical; details: for Slope normalized to DMSO (proteolytic substrate cleavage over time) / Rat alpha thrombin inhibition, slope normalized to DMSO: replicates R1-R3
T1 construct: rat α-thrombin (Molecular Innovations) were used at final concentrations of 2 nM and 3 nM; purchased Molecular Innovations
Method in brief: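 Inhibition was measured as AMC fluorescence from 50 μM substrate, monitored for 30 min at 25 °C, relative to a peptide-free control. Human and rat enzymes were present at 2 nM and 3 nM final, respectively, in 50 mM Tris-HCl pH 7.4, 150 mM NaCl, 10 mM MgCl2, 1 mM CaCl2. Ki derives from fitted IC50 via Cheng–Prusoff.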

porcine pepsin = target: T2, porcine pepsin (Sus scrofa, UniProt P00791); test: Peptide stability in simulated gastric fluid (SGF); type: in vitro ADME
T2 construct: 0.32 g of porcine pepsin (Sigma-Aldrich, P7125) was dissolved under gentle agitation; purchased Sigma-Aldrich P7125
Method in brief: as §1

[2] = Metabolic stability in rat liver microsomes (RLMs); details: rat, microsomes

T2 sequence (P00791 60-385): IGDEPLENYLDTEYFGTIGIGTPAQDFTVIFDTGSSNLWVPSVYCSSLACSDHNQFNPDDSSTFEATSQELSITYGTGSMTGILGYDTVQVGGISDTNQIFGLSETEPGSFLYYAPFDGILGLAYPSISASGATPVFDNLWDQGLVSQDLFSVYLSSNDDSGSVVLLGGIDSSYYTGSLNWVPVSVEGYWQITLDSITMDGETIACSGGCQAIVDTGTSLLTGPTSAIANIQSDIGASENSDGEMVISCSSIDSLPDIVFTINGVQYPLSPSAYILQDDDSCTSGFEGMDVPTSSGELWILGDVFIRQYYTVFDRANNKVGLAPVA

Structure (SMILES): CN1CCC(=O)NCCSCCS(=O)(=O)CCSC[C@H](NC(=O)c2ccc(Cl)s2)C(=O)N[C@@H](Cc2ccccc2)C1=O [compound 14]
- remaining at 8 h [1]: 87 ± 11%
- SIF stability, Residual peptide Average (porcine pancreatin; average of R1-R3): 87.22
- SIF stability, Residual peptide (porcine pancreatin; single replicates R1-R3): 90.22 and 74.69 and 96.74
- Ki (rat α-thrombin; average of R1-R3, read-out: Ki Average): 357 nM
- Slope normalized to DMSO (proteolytic substrate cleavage over time) (rat α-thrombin; peptide 1.02E-03 uM): 100.5 and 96.1 and 105.7
- Slope normalized to DMSO (proteolytic substrate cleavage over time) (rat α-thrombin; peptide 1.04E+00 uM): 47.3 and 45.5 and 46.2
- Slope normalized to DMSO (proteolytic substrate cleavage over time) (rat α-thrombin; peptide 1.27E-04 uM): 98.2 and 95.5 and 104.0
- Slope normalized to DMSO (proteolytic substrate cleavage over time) (rat α-thrombin; peptide 1.30E-01 uM): 88.1 and 88.0 and 95.1
- Rat alpha thrombin inhibition, slope normalized to DMSO (rat α-thrombin; peptide 1.33E+02 uM, slope of proteolytic substrate cleavage over time): 29.3 and 31.0 and 24.5
- Slope normalized to DMSO (proteolytic substrate cleavage over time) (rat α-thrombin; peptide 1.63E-02 uM): 95.3 and 90.7 and 94.2
- Rat alpha thrombin inhibition, slope normalized to DMSO (rat α-thrombin; peptide 1.67E+01 uM): 11.1 and 9.5 and 16.8
- Slope normalized to DMSO (proteolytic substrate cleavage over time) (rat α-thrombin; peptide 2.03E-03 uM): 96.6 and 95.4 and 92.0
- Rat alpha thrombin inhibition, slope normalized to DMSO (rat α-thrombin; peptide 2.08E+00 uM): 34.7 and 33.7 and 44.2
- Slope normalized to DMSO (proteolytic substrate cleavage over time) (rat α-thrombin; peptide 2.54E-04 uM): 95.8 (2×) and 100.3
- Slope normalized to DMSO (proteolytic substrate cleavage over time) (rat α-thrombin; peptide 2.60E-01 uM): 75.1 and 76.7 and 74.0
- Slope normalized to DMSO (proteolytic substrate cleavage over time) (rat α-thrombin; peptide 3.18E-05 uM): 100.9 and 96.6 and 106.2
- Slope normalized to DMSO (proteolytic substrate cleavage over time) (rat α-thrombin; peptide 3.26E-02 uM): 100.1 and 92.2 and 91.8
- Rat alpha thrombin inhibition, slope normalized to DMSO (rat α-thrombin; peptide 3.33E+01 uM): 8.8 and 9.0 and 13.6
- Slope normalized to DMSO (proteolytic substrate cleavage over time) (rat α-thrombin; peptide 4.07E-03 uM): 100.3 and 98.9 and 95.8
- Rat alpha thrombin inhibition, slope normalized to DMSO (rat α-thrombin; peptide 4.17E+00 uM): 29.3 and 26.2 and 29.7
- Slope normalized to DMSO (proteolytic substrate cleavage over time) (rat α-thrombin; peptide 5.09E-04 uM): 99.8 and 96.7 and 105.4
- Slope normalized to DMSO (proteolytic substrate cleavage over time) (rat α-thrombin; peptide 5.21E-01 uM): 62.1 and 60.1 and 59.5
- Slope normalized to DMSO (proteolytic substrate cleavage over time) (rat α-thrombin; peptide 6.36E-05 uM): 99.5 and 99.0 and 105.5
- Slope normalized to DMSO (proteolytic substrate cleavage over time) (rat α-thrombin; peptide 6.51E-02 uM): 92.1 and 90.2 and 94.2
- Rat alpha thrombin inhibition, slope normalized to DMSO (rat α-thrombin; peptide 6.67E+01 uM): 22.0 and 23.9 and 12.4
- Slope normalized to DMSO (proteolytic substrate cleavage over time) (rat α-thrombin; peptide 8.14E-03 uM): 88.9 and 94.1 and 99.5
- Rat alpha thrombin inhibition, slope normalized to DMSO (rat α-thrombin; peptide 8.33E+00 uM): 16.6 and 15.4 and 23.2
- IC50 (rat α-thrombin; single replicates R1-R3, read-out: IC50): 640 nM and 631 nM and 666 nM
- Ki (rat α-thrombin; single replicates R1-R3, read-out: Ki): 354 nM and 349 nM and 368 nM
- SGF stability, Residual peptide Average (porcine pepsin; after 8 h vs 0 h (TIC), average of R1-R3): 95.02
- SGF stability, Residual peptide (porcine pepsin; after 8 h vs 0 h (TIC), single replicates R1-R3): 100.52 and 97.58 and 86.97
- remaining at 8 h (porcine pepsin; pig, simulated gi fluid, 8 h, 37 °C, pH 1.2, read-out: Proteolytic stability: SGF (8 h) % remaining): 95 ± 7%
- microsomal CLint ([2]; CL (ul/min/mg protein) R1, RLM CL, replicate R1): 78.3 µL/min/mg
- microsomal CLint ([2]; CL (ul/min/mg protein) R2, RLM CL, replicate R2): 132 µL/min/mg
- microsomal CLint ([2]; CL (ul/min/mg protein) R3, RLM CL, replicate R3): 141 µL/min/mg
- half-life ([2]; Half Life (min) R1, RLM metabolic stability, replicate R1, 0-60 min): 17.7 min
- half-life ([2]; Half Life (min) R2, RLM metabolic stability, replicate R2, 0-60 min): 10.5 min
- half-life ([2]; Half Life (min) R3, RLM metabolic stability, replicate R3, 0-60 min): 9.82 min
- microsomal CLint ([2]; Metabolic stability: RLM CL (ul/min/mg), RLMs, mean and SD, three measurements): 117 ± 28 µL/min/mg
- microsomal CLint ([2]; Metabolic stability: RLM CL R1, summary table, rounded, replicate R1): 78.3 µL/min/mg
- microsomal CLint ([2]; Metabolic stability: RLM CL R2, summary table, rounded, replicate R2): 132 µL/min/mg
- microsomal CLint ([2]; Metabolic stability: RLM CL R3, summary table, rounded, replicate R3): 141 µL/min/mg
- half-life ([2]; pH 7.4, Metabolic stability: Half life T1/2 (min), RLMs, mean and SD, three measurements): 12.7 ± 3.6 min
- microsomal CLint ([2]; pH 7.4, Metabolic stability: RLM CL Average, summary table, average of R1-R3): 117 µL/min/mg
